This is an account of results in ChEMBL document CHEMBL5360672, “Identification of Novel Dual-Target Estrogen Receptor α Degraders with Tubulin Inhibitory Activity for the Treatment of Endocrine-Resistant Breast Cancer” (J Med Chem, 2023).

The IC50 is the concentration that inhibits the measured activity by half.

The source made the active and inactive calls. The rule behind the calls is not given here.

The species entered for one data set is Homo sapiens. The experiment in a line: Selectivity ratio of relative binding affinity for human ERalpha to relative binding affinity to human ERbeta.
A short description of data set [1]: Selectivity index, ratio of IC50 for cytotoxicity against human MCF-10A cells to IC50 for antiproliferative activity against human MCF7 cells. The class given is toxicity, cell-based. As to conditions: MCF-10A cells and MCF7 cells, read-out: Ratio IC50.
The target in data set [2] is T1, Estrogen receptor (Homo sapiens) (UniProt P03372).
T1 sequence (whole entry): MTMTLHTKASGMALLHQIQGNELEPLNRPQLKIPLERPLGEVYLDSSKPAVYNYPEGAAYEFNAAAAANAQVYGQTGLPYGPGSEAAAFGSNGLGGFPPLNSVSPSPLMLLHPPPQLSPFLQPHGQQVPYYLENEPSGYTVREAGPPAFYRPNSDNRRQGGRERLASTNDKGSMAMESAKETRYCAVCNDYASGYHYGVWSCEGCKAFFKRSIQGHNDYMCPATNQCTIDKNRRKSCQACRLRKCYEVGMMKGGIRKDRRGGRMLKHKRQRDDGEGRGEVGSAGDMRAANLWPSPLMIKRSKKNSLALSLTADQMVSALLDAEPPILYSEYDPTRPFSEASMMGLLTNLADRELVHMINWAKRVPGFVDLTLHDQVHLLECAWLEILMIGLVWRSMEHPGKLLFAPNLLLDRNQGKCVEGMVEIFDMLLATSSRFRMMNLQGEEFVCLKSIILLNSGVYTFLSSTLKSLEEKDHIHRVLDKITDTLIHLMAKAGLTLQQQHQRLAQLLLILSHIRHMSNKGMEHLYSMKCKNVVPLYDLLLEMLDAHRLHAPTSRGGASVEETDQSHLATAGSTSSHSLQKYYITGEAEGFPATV
The experiment in a line: Induction of ERalpha degradation in human MCF7 cells at 5 uM incubated for 24 hrs by Western blot analysis relative to SeCN-OBHSA derivatives. The class given is cell-based.

Data set [3] concerns T47D. The experiment in a line: Antiproliferative activity against human T47D cells harboring ERalpha D538G mutant assessed as inhibition of cell proliferation incubated for 72 hrs by CCK8 assay. The class given is functional, cell-based. In general terms: Formazan colour is commonly taken as a measure of viable cells.
The subject of data set [4] is T47D. The experiment in a line: Antiproliferative activity against ERalpha positive human T47D cells assessed as inhibition of cell proliferation incubated for 72 hrs by CCK8 assay. In kind it is functional, cell-based.
The nature of data set [5]: Antiproliferative activity against human Tamoxifen-resistant LCC2 cells assessed as inhibition of cell proliferation incubated for 72 hrs by CCK8 assay. In kind it is functional, cell-based.
The target in data set [6] is T1, Estrogen receptor (Homo sapiens). Description: Binding affinity to human ERalpha assessed as relative binding affinity incubated under vibration for 1 min followed by 2 hrs incubation under dark condition by fluorescence polarization assay relative to estradiol. The note with it: time 121.0 min. (In fluorescence polarisation assays a small probe gives low polarisation when free and higher when bound to something large.)

The test system of data set [7] is T47D. The experiment in a line: Antiproliferative activity against human T47D cells harboring ERalpha Y537S mutant assessed as inhibition of cell proliferation incubated for 72 hrs by CCK8 assay. In kind it is functional, cell-based.
Data set [8] deals with Estrogen receptor beta (Homo sapiens) (UniProt Q92731). The experiment in a line: Binding affinity to human ERbeta assessed as relative binding affinity incubated under vibration for 1 min followed by 2 hrs incubation under dark condition by fluorescence polarization assay relative to estradiol. The note with it: time 121.0 min.
Data set [9] in a line: Cytotoxicity against human MCF-10A cells assessed as inhibition of cell proliferation incubated for 72 hrs by CCK8 assay. In kind it is toxicity, cell-based.
A further data set has as its system MCF7. The experiment in a line: Antiproliferative activity against ERalpha positive human MCF7 cells assessed as inhibition of cell proliferation incubated for 72 hrs by CCK8 assay. The class given is functional, cell-based. As to conditions: MCF7, 72 h.

Estrogen receptor beta (Homo sapiens), sequence (Q92731 whole entry): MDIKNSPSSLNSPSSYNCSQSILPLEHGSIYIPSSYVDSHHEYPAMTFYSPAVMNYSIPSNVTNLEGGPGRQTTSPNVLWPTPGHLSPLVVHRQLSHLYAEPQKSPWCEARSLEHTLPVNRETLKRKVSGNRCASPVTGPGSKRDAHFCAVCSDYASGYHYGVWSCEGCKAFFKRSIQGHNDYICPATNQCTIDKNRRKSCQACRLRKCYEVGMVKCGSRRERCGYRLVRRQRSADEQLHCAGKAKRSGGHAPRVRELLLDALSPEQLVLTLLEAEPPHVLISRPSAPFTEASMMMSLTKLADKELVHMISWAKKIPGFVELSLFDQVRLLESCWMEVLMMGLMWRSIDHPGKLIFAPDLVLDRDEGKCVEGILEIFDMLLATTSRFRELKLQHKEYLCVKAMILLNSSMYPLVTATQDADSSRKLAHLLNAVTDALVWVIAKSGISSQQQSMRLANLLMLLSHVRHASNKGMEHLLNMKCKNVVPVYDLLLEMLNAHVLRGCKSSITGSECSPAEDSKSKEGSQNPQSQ

Take `CCN(c1ccccc1Cl)S(=O)(=O)C1CC2OC1C(c1ccc(NC(=O)CCCCC[Se]C#N)cc1)=C2c1ccc(O)cc1` (configuration not stated): the Selectivity ratio in the data set filed under Homo sapiens was 29.9. In addition, in data set [1], the selectivity ratio amounted to 108. Also, the result in data set [2] was Active. Also, the IC50 in the data set with T47D [3] was determined as 2.37 µM; in the data set with T47D [4], 3.11 µM; in [5], 2.17 µM; in the data set with T47D [7], 2.18 µM; in the data set with MCF7, 0.16 µM. The RBA in [6] came to 2.69%; in data set [8], 0.09%. For the same molecule, the IC50 at 72 h in data set [9] turned out to be 17.3 µM.

With `CCN(c1cccc(F)c1)S(=O)(=O)C1CC2OC1C(c1ccc(NC(=O)CCCCC[Se]C#N)cc1)=C2c1ccc(O)cc1` (configuration not stated), the Selectivity ratio in the data set filed under Homo sapiens worked out at 26.3. For the same molecule, the selectivity ratio in data set [1] was 30.6. Also, the outcome in data set [2] was Active. The half-inhibitory concentration (IC50) in the data set on T47D [3] was 2.37 µM; with T47D [4], 3.39 µM; in [5], 2.51 µM; in the data set with T47D [7], 2.39 µM; with MCF7, 0.36 µM. Further, the RBA stood at 0.79% in data set [6] and 0.03% in data set [8]. In [9], the IC50 at 72 h came to 11 µM.

As to `CCN(c1ccc(Cl)cc1)S(=O)(=O)C1CC2OC1C(c1ccc(NC(=O)CCCCC[Se]C#N)cc1)=C2c1ccc(O)cc1` (configuration not stated), the Selectivity ratio in the data set filed under Homo sapiens stood at 38.5. For the same molecule, in data set [1], the selectivity ratio came to 66.3. The outcome in data set [2] was Active. Also, the IC50 is 6.76 µM with T47D [3]; 5.66 µM in the data set on T47D [4]; 4 µM in data set [5]; 4.51 µM in the data set on T47D [7]; 0.44 µM in the data set with MCF7. For the same molecule, the RBA was found to be 2.31% in [6] and 0.06% in [8]. Besides, the IC50 at 72 h in data set [9] was 29.2 µM.

For the molecule `CCN(c1ccc(OC)cc1)S(=O)(=O)C1CC2OC1C(c1ccc(NC(=O)CCCCCCC[Se]C#N)cc1)=C2c1ccc(O)cc1` (configuration not stated), the Selectivity ratio in the data set listed under Homo sapiens amounted to 26.1. The selectivity ratio in data set [1] worked out at 45.1. Besides, the result in [2] was Active. Further, the IC50 was determined as 7.35 µM in the data set with T47D [3]; 18 µM in the data set with T47D [4]; 13.4 µM in data set [5]; 7.01 µM with T47D [7]; 0.66 µM in the data set on MCF7. In addition, the RBA in [6] amounted to 2.61%; in [8], 0.1%. The IC50 at 72 h in data set [9] is 29.8 µM.

On to `CCN(c1ccccc1OC)S(=O)(=O)C1CC2OC1C(c1ccc(NC(=O)CCCCC[Se]C#N)cc1)=C2c1ccc(O)cc1` (configuration not stated), for which the Selectivity ratio in the data set listed under Homo sapiens was 94. Also, the selectivity ratio in data set [1] was 37.9. Also, the outcome in data set [2] was Active. Moreover, the IC50 with T47D [3] was found to be 5.52 µM; in the data set with T47D [4], 3.93 µM; in data set [5], 6.56 µM; in the data set with T47D [7] it was 3.69 µM; in the data set on MCF7, 0.42 µM. Also, the results for the RBA in data set [6] and in data set [8] were 2.82% and 0.03%, respectively. Further, the half-maximal inhibitory concentration (IC50) at 72 h in data set [9] amounted to 15.9 µM.

With `CCN(c1ccc(OC)cc1)S(=O)(=O)C1CC2OC1C(c1ccc(NC(=O)CCC[Se]C#N)cc1)=C2c1ccc(O)cc1` (configuration not stated), in the data set filed under Homo sapiens, the Selectivity ratio was 6.29. The selectivity ratio in data set [1] was greater than 61.4. Moreover, in data set [2], the outcome was Active. The IC50 amounted to 8.97 µM in the data set with T47D [3]; 7.44 µM in the data set with T47D [4]; 17.4 µM in data set [5]; 6.69 µM in the data set with T47D [7]; 1.63 µM in the data set on MCF7. The RBA in [6] came out at 1.07%; in [8], 0.17%. In addition, the IC50 at 72 h in data set [9] is greater than 100 µM.

`COc1ccc(N(CC(F)(F)F)S(=O)(=O)C2CC3OC2C(c2ccc(NC(=O)CCCCCCC[Se]C#N)cc2)=C3c2ccc(O)cc2)cc1` (configuration not stated): the Selectivity ratio in the data set filed under Homo sapiens came out at 8.44. Moreover, in data set [1], the selectivity ratio turned out to be 86.8. In addition, in data set [2], the outcome was Active. Also, the IC50 with T47D [3] stood at 12.7 µM; in the data set on T47D [4], 20.2 µM; in data set [5], 10.3 µM; with T47D [7], 6.27 µM; with MCF7 it was 0.44 µM. The values for the RBA in data set [6] and in [8] were 0.76% and 0.09%, respectively. Besides, the IC50 at 72 h in data set [9] came out at 38.2 µM.
